These results are taken from a melting point compilation (Tetko et al.; mined from patent text by program, amines drawn as free bases though some values may be those of a salt).

In general, melting point refers to the temperature, or range, at which the solid turns liquid. `CCCC[C@H](NS(=O)(=O)c1ccc(Br)cc1)C(=S)Nc1ccc(CC(=O)O)cc1` had a melting point of 194 to 195 °C.

For `Cc1cc(C)c2c(c1Br)CCC2=O`, the melting point worked out at 103 °C.

Compound `Cc1cccc2c(=O)c3cccc(CBr)c3oc12` gave a melting point of 171 to 172 °C.

`COc1ccc(C(=O)NCCc2ccc(-c3ccc(O)cc3)cc2)cc1OC` displayed a melting point of 170 °C.

In turn, `CCOCc1nc2c(N)nc3c(c2n1CC1(OCCS(C)(=O)=O)CCC1)CCCC3` yielded a melting point of 186 to 188 °C.

`CC1(C)COC(CCc2ccc(NC=NO)cc2)OC1` displayed a melting point of 159 to 160 °C.

For the compound `CC(C)c1nc(-c2cccc3c2OCO3)cc(-c2ccc(F)cc2)c1C=C(Br)Br`, the melting point was in the range of 129 to 131 °C.

`CCOC(=O)NNC=Nc1nc(-c2ccc3c(c2)CCCC3)cs1` came in with a melting point of 134 to 135 °C.

Regarding `O=C1COCCN1CCn1c2ccccc2c2c(N3CCCC3)nc(N3CCCC3)nc21`, the melting point is 179 to 180 °C.

Consider `CCC(CC)Nc1cc(C)nc2c1nnn2-c1c(C)cc(C)cc1C`, for which the melting point lay within 131 to 133 °C.

Consider `CCOC(=O)C(=O)Nc1cccc(N(C)C)c1C(N)=O`, for which the melting point is 133 to 135 °C.

The compound `Cc1oc(-c2ccccc2)nc1COc1ccc(COc2nn(Cc3ccccc3)cc2CC(=O)O)cc1` yielded a melting point of 91 to 92 °C.

In the case of `O=Cc1c2ccsc2cc2c1ccc1ccccc12`, the melting point lay within 178 to 180 °C.

In turn, `O=S(=O)(CC(F)(F)F)N(Cc1cccnc1)c1cccc(Oc2ccccc2O)c1` had a melting point of 57.5 to 60 °C.

The compound `O=c1[nH]c2ccc(C(F)(F)F)cc2c(-c2cc(Cl)ccc2O)c1NS(=O)(=O)c1ccccc1` yielded a melting point of 262 to 265 °C.

The compound `CCOCc1nc2c(N)nc(C)c(C)c2n1CC(C)(C)O` returned a melting point of 190 to 193 °C.

`O=C1NC(Cc2ccc(OCc3ccccc3)cn2)C(=O)NC1Cc1cccnc1` (stereo not given) showed a melting point of 193 to 196 °C.

`CC(=O)c1cnc2c(NC(=O)c3c(Cl)cccc3Cl)cccc2c1` gave a melting point of 243 to 245 °C.

`COc1ccc2c(c1)CCC1C2CCC2(C)C1CCC2N(C)CCC(C)C` (stereo not given) returned a melting point of 80 to 80.5 °C.

The compound `COc1cccc2c1CCCC2=NNc1nc(-c2ccc(F)cc2)cs1` came in with a melting point of 198 °C.

Take `COc1nscc1C#N`: the melting point lay in the range of 60 to 62 °C.

Regarding `OC1CSC(Oc2cccc(-c3ccccn3)c2)C(O)C1O` (stereo not given), the melting point was 138 to 139 °C.

`CC(C)CC(NC(=O)c1ccc(NCc2c[nH]cn2)cc1-c1ccccc1)C(=O)O` (stereo not given) displayed a melting point of 114 to 116 °C.

Consider `O=C1c2ccccc2COc2ccc(CC(=O)N(O)C3CCCCC3)cc21`, for which the melting point lay in the range of 130 to 131 °C.

Consider `CCOC1Nc2c(ccc(C)c2O)C(=O)N2CCCC12` (stereo not given), for which the melting point was in the range of 155 to 157 °C.

Take `CCc1cc2c(Cl)ccc(-n3c(=O)cc(C(F)(F)F)n(C)c3=O)c2o1`: the melting point lay in the range of 159 to 160 °C.

Compound `Oc1ccc(P(c2ccc(O)cc2)c2ccc(O)cc2)cc1` returned a melting point of 128 to 133 °C.

`CC(=O)N1CC(=O)NC(Cc2cccc(NC(=O)OC(C)(C)C)c2)C1=O` (stereo not given) displayed a melting point of 189 to 190 °C.

Consider `NC(=O)c1snnc1C1CC1`, for which the melting point came to 163 °C.

In turn, `CCc1cc(CC)c(-c2c(O)c(C)nn(C)c2=O)c(CC)c1I` registered a melting point of 217 to 219 °C.

Take `CNC(=O)COC(=O)N1CCN(CCc2cc(-c3ccc(Cl)cc3)no2)CC1`: the melting point lay within 130 to 132 °C.

Compound `O=C(CCCCCCNC(=O)C(=O)c1cn2c3c(cccc13)CCC2)NO` returned a melting point of 158 to 159 °C.

With `CN1CCC[C@@H]1Cc1cn(Cc2ccccc2)c2ccc(CS(=O)(=O)N(C)C(c3ccccc3)c3ccccc3)cc12`, the melting point lay within 117 to 120 °C.

`Cc1cc2c(-c3cccc(/C=C/C(=O)O)c3)c(CC(=O)Nc3ccc(Cl)cc3C(F)(F)F)c(=O)oc2cc1Cl` displayed a melting point of 191 to 194 °C.

On to `O=Cc1c[nH]cc1-c1ccccc1Cl`, for which the melting point was 147 to 148 °C.
